“And” between values parts separate entries of the source, which are not always exact repeats. Identical values can stand only once.
Assays:
[1] = test system: TM 93 cells; experiment: Microarray gene expression profiling in TM 93 cells (with IPA and GoMiner analysis); type: cell-based, human; conditions: 1 μM, 24 hr
Text: (§1) Cells were maintained in low glucose Dulbecco's Modified Eagle Medium (DMEM, Invitrogen, Carlsbad, CA) supplemented with 10% (vol/vol) FBS (American Type Culture Collection, Manassas, VA), 1% (vol/vol) penicillin and streptomycin (Invitrogen). Cells from the human HeLa cervical adenocarcinoma cell line (American Type Culture Collection) were maintained in α-MEM medium supplemented with 10% (v/v) FBS, 1% (v/v) penicillin and streptomycin. All cells were used within passages 3 to 6. […] Cells were maintained for one week with medium renewal every other day. The day before the experiment, confluent TM were washed once with phosphate-buffered saline (PBS) and then the cells were maintained in 1% FBS-containing medium with antibiotics. […] Control cells were treated with 0.1%(v/v) dimethylsulfoxide (DMSO). At the end of GC treatment, supernatant was discarded and the cell monolayer was kept frozen at -80°C for subsequent total RNA extraction and gene expression profiling. […] Briefly, RNA was isolated from flash frozen cell culture plates using RNeasy Mini columns (Qiagen, Valencia, CA) according to the manufacturer's protocol. There were three biological replicates per treatment condition. The quantity and purity of the extracted RNA was evaluated using a NanoDrop ND-1000 spectrophotometer (Nanodrop Technologies, Wilmington, DE, USA) and its integrity measured using an Agilent Bioanalyzer. […] The amount and quality of the fluorescently labeled cRNA was assessed using a NanoDrop ND-1000 spectrophotometer and an Agilent Bioanalyzer. An equal amount of Cy3-labeled cRNA (1.6 μg) was hybridized to the Agilent Human Whole Genome Oligo Microarray (Agilent Technologies) for 17 hours, prior to washing and scanning. Data were extracted from scanned images using Agilent's Feature Extraction Software (Agilent Technologies) using default settings. […] The full complement of microarray data has been deposited in the NIH/NLM Gene Expression Omnibus (GEO accession # GSE16643). […] The lists of differentially expressed genes were also applied to global functional, network and canonical pathway analyses using Ingenuity Pathway Analysis (Ingenuity® Systems, Redwood City, CA).

[2] = biological target: T1, glucocorticoid receptor (Homo sapiens, UniProt P04150); experiment: GR radiolabeled competitive binding assay (IM-9 cell cytosol, [3H]dexamethasone; Cerep); conditions: for nH (Hill coefficient): IM-9 cell cytosol competition curves; for Ki: IM-9 cell cytosol, calculated by Cheng Prusoff equation; for IC50: read-out: GR binding affinity IC50
T1 sequence (P04150 524-777 limits assumed): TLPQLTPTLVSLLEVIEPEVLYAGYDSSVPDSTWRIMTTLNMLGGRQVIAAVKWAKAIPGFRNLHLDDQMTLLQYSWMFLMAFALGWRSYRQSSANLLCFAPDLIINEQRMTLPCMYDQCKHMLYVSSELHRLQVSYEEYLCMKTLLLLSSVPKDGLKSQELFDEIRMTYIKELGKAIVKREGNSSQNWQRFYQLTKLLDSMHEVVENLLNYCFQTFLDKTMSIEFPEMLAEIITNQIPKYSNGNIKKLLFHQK
Protocol: GR binding affinity assay was performed at Cerep Inc. (Celle l'Evescault, France), according to an established method. […] Nonspecific binding is determined in the presence of 10 μM triamcinolone. Following incubation, the samples are filtered rapidly under vacuum through glass fiber filters (GF/B, Packard) presoaked with 0.3% Poly(ethyleneimine) and rinsed several times with ice-cold 50 mM Tris-HCl using a 96-sample cell harvester (Unifilter, Packard). The filters are dried and counted for radioactivity in a scintillation counter (Topcount, Packard) using a scintillation cocktail (Microscint 0, Packard). The results are expressed as percent inhibition of the control radioligand specific binding. The IC50 values (concentration causing half-maximal inhibition of control specific binding) and Hill coefficients (nH) were determined by non-linear regression analysis of the competition curves generated with mean replicate values using Hill equation curve fitting (Y = D + [(A - D)/(1 + (C/C50)^nH)], where Y = specific binding, D = minimum specific binding, A = maximum specific binding, C = compound concentration, C50 = IC50, and nH = slope factor). […] The inhibition constants (Ki) were calculated using the Cheng Prusoff equation (Ki = IC50/(1+(L/KD)), where L = concentration of radioligand in the assay, and KD = affinity of the radioligand for the receptor). […] The GR binding assay was performed in duplicate.

[3] = test system: TM 86 cells; experiment: Microarray gene expression profiling in TM 86 cells (with IPA and GoMiner analysis); type: cell-based, human; conditions: 1 μM, 24 hr
Text: as §1

[4] = biological target: T1, glucocorticoid receptor; experiment: GeneBLAzer beta-lactamase reporter gene assay, GR transactivation in MMTV-bla HeLa CellSensor cells; type: cell-based; conditions: 5 hr treatment
Protocol: GR transactivation activity was assessed by the Invitrogen SelectScreen Profiling Service (Madison, WI), using Invitrogen GeneBLAzer beta-lactamase reporter gene technology. Profiling was performed using human HeLa cells stably transfected with an expression construct containing β-lactamase cDNA under the control of the MMTV response element previously identified as a GR response element (MMTV-bla HeLa CellSensor®). The MMTV-bla HeLa cells were plated in 384-well plates in 32 μl assay medium (OPTIMEM + 1% charcoal/dextran stripped FBS) at a density of 10,000 cells/well and incubated overnight. […] The β-lactamase activity of each sample was determined by adding 8 μl of 6-fold concentrated LiveBLAzer™ substrate solution to the samples followed by two hours of incubation at room temperature in a Tecan Safire2 plate reader using the appropriate LiveBLAzer™ filter settings. GC treatment was performed in 15-point dose response using a three-fold dilution series starting with a maximum compound concentration of 10 μM. Each data point represents a triplicate sample (n = 3). Assay reproducibility was determined by calculating Z' values for untreated vs. maximum stimulation. The GeneBLAzer assay was performed twice.

[5] = human, following local administration; cited from earlier work

CC1(C)O[C@@H]2C[C@H]3[C@@H]4C[C@H](F)C5=CC(=O)C=C[C@]5(C)[C@@]4(F)[C@@H](O)C[C@]3(C)[C@]2(C(=O)CO)O1 [FA, fluocinolone acetonide]
function of significantly regulated genes (Ingenuity Pathway Analysis) [1]: cell cycle | number of genes uniquely regulated by each GC [1]: 2294 | significantly regulated biological process (GoMiner gene ontology) [1]: biopolymer metabolic process | significantly regulated network (Ingenuity Pathway Analysis) [1]: JARID1B-based network | ANGPTL4 FC (fold change) ([1]; microarray): 9.1 fold | ANGPTL7 FC (fold change) ([1]; microarray): 13.0 fold | AQP1 FC (fold change) ([1]; microarray): -3.2 fold | CCRL1 FC (fold change) ([1]; microarray): -2.5 fold | CXADR FC (fold change) ([1]; microarray): -1.8 fold | ENST00000344214 FC (fold change) ([1]; microarray): -6.3 fold | FKBP5 FC (fold change) ([1]; microarray): 6.8 fold | GABRB1 FC (fold change) ([1]; microarray): -2.2 fold | ITGA10 FC (fold change) ([1]; microarray): 9.1 fold | KAL1 FC (fold change) ([1]; microarray): -3.0 fold | KCNB1 FC (fold change) ([1]; microarray): 5.2 fold | KIF4A FC (fold change) ([1]; microarray): -2.2 fold | KLF15 FC (fold change) ([1]; microarray): 3.6 fold | LSP1 FC (fold change) ([1]; microarray): 18.0 fold | MXRA5 FC (fold change) ([1]; microarray): -4.5 fold | MYOC FC (fold change) ([1]; microarray): 2.7 fold | OCA2 FC (fold change) ([1]; microarray): 98.0 fold | PCDH19 FC (fold change) ([1]; microarray): -3.9 fold | PER3 FC (fold change) ([1]; microarray): -3.6 fold | PF4 FC (fold change) ([1]; microarray): 6.5 fold | RGC32 FC (fold change) ([1]; microarray): 11.0 fold | SAA1 FC (fold change) ([1]; microarray): 8.3 fold | ZBTB16 FC (fold change) ([1]; microarray): 4.9 fold | nH (Hill coefficient) [2]: 1.10 ± 0.00 | Ki [2]: 0.97 ± 0.17 nM | IC50 [2]: 2 ± 0.42 nM | function of significantly regulated transcripts (Ingenuity Pathway Analysis) [3]: lipid metabolism | number of genes uniquely regulated by each GC [3]: 693 | significantly regulated biological process (GoMiner gene ontology) [3]: actin filament-based process | significantly regulated network (Ingenuity Pathway Analysis) [3]: a GR-dependent network | ANGPTL4 FC (fold change) ([3]; microarray): 9.6 fold | ANGPTL7 FC (fold change) ([3]; microarray): 16.0 fold | AQP1 FC (fold change) ([3]; microarray): -4.4 fold | CCRL1 FC (fold change) ([3]; microarray): -4.7 fold | CXADR FC (fold change) ([3]; microarray): -3.4 fold | FKBP5 FC (fold change) ([3]; microarray): 13.8 fold | GABRB1 FC (fold change) ([3]; microarray): -4.0 fold | ITGA10 FC (fold change) ([3]; microarray): 25.1 fold | KAL1 FC (fold change) ([3]; microarray): -5.6 fold | KCNB1 FC (fold change) ([3]; microarray): 20.1 fold | KIF4A FC (fold change) ([3]; microarray): -3.6 fold | KLF15 FC (fold change) ([3]; microarray): 11.5 fold | LSP1 FC (fold change) ([3]; microarray): 14.9 fold | MXRA5 FC (fold change) ([3]; microarray): -4.3 fold | MYOC FC (fold change) ([3]; microarray): 7.4 fold | PCDH19 FC (fold change) ([3]; microarray): -5.1 fold | PER3 FC (fold change) ([3]; microarray): -5.3 fold | PF4 FC (fold change) ([3]; microarray): 3.1 fold and 3.2 fold | RASL11B FC (fold change) ([3]; microarray): -4.9 fold | RGC32 FC (fold change) ([3]; microarray): >100 fold | SAA1 FC (fold change) ([3]; microarray): 34.6 fold | ZBTB16 FC (fold change) ([3]; microarray): 8.7 fold | EC50 [4]: 0.7 nM and 0.67 nM

CC1(C)O[C@@H]2C[C@H]3[C@@H]4CCC5=CC(=O)C=C[C@]5(C)[C@@]4(F)[C@@H](O)C[C@]3(C)[C@]2(C(=O)CO)O1 [TA, triamcinolone acetonide]
function of significantly regulated genes (Ingenuity Pathway Analysis) [1]: cell adhesion | number of genes uniquely regulated by each GC [1]: 555 | significantly regulated biological process (GoMiner gene ontology) [1]: smooth muscle cell proliferation | ANGPTL4 FC (fold change) ([1]; microarray): 5.3 fold | ANGPTL7 FC (fold change) ([1]; microarray): 20.5 fold | AQP1 FC (fold change) ([1]; microarray): -2.8 fold | CCRL1 FC (fold change) ([1]; microarray): -2.1 fold | CXADR FC (fold change) ([1]; microarray): -2.6 fold | FKBP5 FC (fold change) ([1]; microarray): 5.8 fold | GABRB1 FC (fold change) ([1]; microarray): -2.6 fold | ITGA10 FC (fold change) ([1]; microarray): 5.6 fold | KAL1 FC (fold change) ([1]; microarray): -3.3 fold | KCNB1 FC (fold change) ([1]; microarray): 11.3 fold | KIF4A FC (fold change) ([1]; microarray): -2.3 fold | KLF15 FC (fold change) ([1]; microarray): 3.9 fold | MXRA5 FC (fold change) ([1]; microarray): -4.5 fold | MYOC FC (fold change) ([1]; microarray): 2.6 fold | OCA2 FC (fold change) ([1]; microarray): >100 fold | PCDH19 FC (fold change) ([1]; microarray): -3.3 fold | PER3 FC (fold change) ([1]; microarray): -3.8 fold | PF4 FC (fold change) ([1]; microarray): 4.4 fold | RGC32 FC (fold change) ([1]; microarray): 19.9 fold | SAA1 FC (fold change) ([1]; microarray): 11.9 fold | ZBTB16 FC (fold change) ([1]; microarray): 5.5 fold | ocular tissue concentrations [5]: > 1 µM | nH (Hill coefficient) [2]: 1.05 ± 0.07 | Ki [2]: 0.72 ± 0.24 nM | IC50 [2]: 1.45 ± 0.5 nM | function of significantly regulated transcripts (Ingenuity Pathway Analysis) [3]: cell morphology | number of genes uniquely regulated by each GC [3]: 388 | significantly regulated biological process (GoMiner gene ontology) [3]: mitotic cell cycle | ANGPTL4 FC (fold change) ([3]; microarray): 7.9 fold | ANGPTL7 FC (fold change) ([3]; microarray): 26.5 fold | AQP1 FC (fold change) ([3]; microarray): -5.1 fold | CCRL1 FC (fold change) ([3]; microarray): -3.4 fold | CXADR FC (fold change) ([3]; microarray): -4.8 fold | ENST00000344214 FC (fold change) ([3]; microarray): -3.1 fold | FKBP5 FC (fold change) ([3]; microarray): 12.5 fold | GABRB1 FC (fold change) ([3]; microarray): -4.9 fold | ITGA10 FC (fold change) ([3]; microarray): 17.7 fold | KAL1 FC (fold change) ([3]; microarray): -6.7 fold | KCNB1 FC (fold change) ([3]; microarray): 19.9 fold | KIF4A FC (fold change) ([3]; microarray): -4.1 fold | KLF15 FC (fold change) ([3]; microarray): 11.1 fold | LSP1 FC (fold change) ([3]; microarray): 15.4 fold | MXRA5 FC (fold change) ([3]; microarray): -5.4 fold | MYOC FC (fold change) ([3]; microarray): 6.7 fold | PCDH19 FC (fold change) ([3]; microarray): -5.0 fold | PER3 FC (fold change) ([3]; microarray): -7.0 fold | RASL11B FC (fold change) ([3]; microarray): -4.0 fold | RGC32 FC (fold change) ([3]; microarray): >100 fold | SAA1 FC (fold change) ([3]; microarray): 35.3 fold | ZBTB16 FC (fold change) ([3]; microarray): 8.1 fold | EC50 [4]: 1.29 ± 0.28 nM
